Assay results published in patent US5602101A, “Antithrombotic agents” (priority 1994, dated 1997).
Like-named read-outs stand apart in the source and are kept apart here. Non-standard residues stand in square brackets, D forms with d. Residues, ends and D or L forms follow the SMILES beside them. dCha = N[C@H](CC1CCCCC1)C(=O)O

Key:
human thrombin = biological target: T1, human thrombin (Homo sapiens, UniProt P00734); assay: Inhibition of amidase activity of thrombin (chromogenic substrate), Kass; assay type: biochemical; conditions: substrate N-benzoyl-Phe-Val-Arg-p-nitroanilide, pH 7.4
T1 construct: purified human thrombin Enzyme Research Laboratories, South Bend, Ind; purchased Enzyme Research Laboratories, South Bend, Ind
Procedure, shortened: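 Human thrombin (8 NIH units/ml solution) with compound in 0.03M Tris, 0.15M NaCl, pH 7.4; chromogenic substrate hydrolysis followed at 405 nm. Free thrombin from standard curves gives bound enzyme and free inhibitor; Kass, an association equilibrium constant in L/mol, averaged over a compound concentration range.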

factor Xa = biological target: T2, factor Xa (Homo sapiens, UniProt P00742); assay: Serine protease inhibition, factor Xa (chromogenic substrate), Kass; assay type: biochemical; conditions: substrate N-Benzoyl-Ile-Glu-Gly-Arg-p-nitroanilide
T2 construct: Human factors X, Xa, IXa, XIa, and xIIa are purchased from Enzyme Research Laboratories; purchased Enzyme Research Laboratories, South Bend, Ind
T2 sequence (P00742 235-488 limits assumed): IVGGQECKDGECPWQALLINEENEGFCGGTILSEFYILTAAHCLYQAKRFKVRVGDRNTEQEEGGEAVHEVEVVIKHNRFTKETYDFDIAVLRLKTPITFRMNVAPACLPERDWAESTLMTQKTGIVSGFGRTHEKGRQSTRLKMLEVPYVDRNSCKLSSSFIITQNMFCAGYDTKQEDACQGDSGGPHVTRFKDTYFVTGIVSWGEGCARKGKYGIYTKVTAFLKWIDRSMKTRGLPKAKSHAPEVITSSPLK
T2 sequence (P00742 41-179 partner limits assumed): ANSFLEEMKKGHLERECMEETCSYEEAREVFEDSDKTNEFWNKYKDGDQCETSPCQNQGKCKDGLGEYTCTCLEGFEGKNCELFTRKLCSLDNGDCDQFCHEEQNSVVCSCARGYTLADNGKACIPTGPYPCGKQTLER
Procedure, shortened: (§1)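 Enzyme mixed with test compound in 0.03M Tris, 0.15M NaCl, pH 7.4, then p-nitroanilide substrate added (Bz-Ile-Glu-Gly-Arg-pNA for factor Xa; Bz-Phe-Val-Arg-pNA for trypsin; H-D-Ile-Pro-Arg-pNA for t-PA; H-D-Val-Leu-Lys-pNA for plasmin); hydrolysis followed at 405 nm. Free enzyme from standard curves gave bound enzyme and free inhibitor; Kass (L/mol) averaged over several compound concentrations.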

Bovine trypsin = biological target: T3, Bovine trypsin (Bos taurus, UniProt P00760); assay: Serine protease inhibition, trypsin (chromogenic substrate), Kass; assay type: biochemical; conditions: substrate N-Benzoyl-Phe-Val-Arg-p-nitroanilide
T3 construct: Bovine trypsin is purchased from Worthington Biochemicals, Freehold, N.J; purchased Worthington Biochemicals, Freehold, N.J
T3 sequence (P00760 24-246): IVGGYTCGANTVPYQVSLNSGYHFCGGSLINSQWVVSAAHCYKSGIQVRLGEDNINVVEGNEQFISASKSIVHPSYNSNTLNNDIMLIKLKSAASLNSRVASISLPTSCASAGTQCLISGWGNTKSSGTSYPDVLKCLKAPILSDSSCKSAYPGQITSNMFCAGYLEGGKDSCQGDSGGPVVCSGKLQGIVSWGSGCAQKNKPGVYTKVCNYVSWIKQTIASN
Procedure, shortened: as §1

Human plasmin = biological target: T4, Human plasmin (Homo sapiens, UniProt P00747); assay: Serine protease inhibition, plasmin (chromogenic substrate), Kass; assay type: biochemical; conditions: substrate H-D-Val-Leu-Lys-p-nitroanilide
T4 construct: Human plasmin is purchased from Boehringer Mannheim, Indianapolis, Ind; purchased Boehringer Mannheim, Indianapolis, Ind
T4 sequence (P00747 581-810 limits assumed): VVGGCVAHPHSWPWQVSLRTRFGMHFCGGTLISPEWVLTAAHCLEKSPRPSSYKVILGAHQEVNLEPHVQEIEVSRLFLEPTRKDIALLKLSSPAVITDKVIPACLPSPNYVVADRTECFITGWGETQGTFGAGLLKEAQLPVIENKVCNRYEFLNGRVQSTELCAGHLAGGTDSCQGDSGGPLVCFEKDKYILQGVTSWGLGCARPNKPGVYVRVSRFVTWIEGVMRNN
T4 sequence (P00747 97-580 partner limits assumed): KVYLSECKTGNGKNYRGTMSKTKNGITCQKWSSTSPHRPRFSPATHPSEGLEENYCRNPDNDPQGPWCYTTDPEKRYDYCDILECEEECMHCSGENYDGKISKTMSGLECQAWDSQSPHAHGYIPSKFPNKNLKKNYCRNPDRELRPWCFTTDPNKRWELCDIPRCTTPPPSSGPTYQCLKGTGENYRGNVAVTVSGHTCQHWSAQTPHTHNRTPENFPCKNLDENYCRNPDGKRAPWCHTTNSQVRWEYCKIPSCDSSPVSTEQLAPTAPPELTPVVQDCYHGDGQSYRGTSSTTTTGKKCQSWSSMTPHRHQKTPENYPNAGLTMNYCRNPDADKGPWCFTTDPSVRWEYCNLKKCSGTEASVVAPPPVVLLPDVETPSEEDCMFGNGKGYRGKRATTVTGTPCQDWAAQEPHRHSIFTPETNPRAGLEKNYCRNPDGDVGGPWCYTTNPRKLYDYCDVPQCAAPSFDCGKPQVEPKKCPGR
Procedure, shortened: as §1

[1] = biological target: T5, tissue plasminogen activator (t-PA) (Homo sapiens, UniProt P00750); assay: Serine protease inhibition, t-PA (chromogenic substrate), Kass; assay type: biochemical; conditions: for Enzyme Kass, t-Pa: substrate H-D-Ile-Pro-Arg-p-nitroanilide
T5 construct: purchased American Diagnostics, Greenwich, Conn
T5 sequence (P00750 36-562): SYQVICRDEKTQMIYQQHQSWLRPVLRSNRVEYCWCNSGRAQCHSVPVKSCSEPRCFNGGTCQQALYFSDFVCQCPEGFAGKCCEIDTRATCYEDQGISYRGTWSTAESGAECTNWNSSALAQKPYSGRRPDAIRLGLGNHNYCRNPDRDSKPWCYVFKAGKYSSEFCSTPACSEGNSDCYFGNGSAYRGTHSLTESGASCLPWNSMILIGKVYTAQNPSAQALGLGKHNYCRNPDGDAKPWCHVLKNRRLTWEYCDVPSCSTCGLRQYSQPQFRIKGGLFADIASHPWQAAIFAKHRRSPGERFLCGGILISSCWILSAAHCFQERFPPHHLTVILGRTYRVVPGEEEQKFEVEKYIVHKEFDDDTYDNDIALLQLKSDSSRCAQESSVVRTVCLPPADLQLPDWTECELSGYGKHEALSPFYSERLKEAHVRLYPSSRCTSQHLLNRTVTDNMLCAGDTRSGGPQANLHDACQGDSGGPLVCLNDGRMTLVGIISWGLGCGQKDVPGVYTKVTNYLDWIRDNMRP
Procedure, shortened: as §1

Human Plasma [2] = assay: Anticoagulation in human plasma, thrombin time (TT); assay type: biochemical; conditions: concentration required to double the thrombin time
Procedure, shortened: (§2)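 Compounds were added to human plasma over a range of concentrations. PT used Thromboplastin-C reagent with saline; APTT used a 120-second Actin preincubation followed by 0.02M CaCl2, and TT used bovine thrombin. Clotting times were read on a CoAScreener, and the concentration doubling clotting time was estimated by linear extrapolation.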

Human Plasma [3] = assay: Anticoagulation in human plasma, activated partial thromboplastin time (APTT); assay type: biochemical; conditions: concentration required to double the APTT
Procedure, shortened: as §2

Human Plasma [4] = assay: Anticoagulation in human plasma, prothrombin time (PT); assay type: biochemical; conditions: concentration required to double the PT
Procedure, shortened: as §2

[5] = Index of bioavailability (plasma TT AUC, p.o. vs i.v.); conditions: rats, adjusted for dose
Method: (§3) Male Sprague Dawley rats (350-425 gm, Harlan Sprague Dawley Inc., Indianapolis, Ind.) are anesthetized with xylazine (20 mg/kg, s.c.) and ketamine (120 mg/kg, s.c.) and maintained on a heated water blanket (37° C.). The jugular vein(s) is cannulated to allow for infusions.
(§4) Plasma thrombin time (TT) and activated partial thromboplastin time (APTT) are measured with a fibrometer. Blood is sampled from a jugular catheter and collected in syringe containing sodium citrate (3.8%, 1 part to 9 parts blood). To measure TT, rat plasma (0.1 ml) is mixed with saline (0.1 ml) and bovine thrombin (0.1 ml, 30 U/ml in TRIS buffer; Parke Davis) at 37° C. For APTT, plasma (0.1 ml) and APTT solution (0.1 ml, Organon Teknika are incubated for 5 minutes (37° C.) and CaCl2 (0.01 ml, 0,025M) is added to start coagulation. Assays are done in duplicate and averaged.
(§5) The time course of the effect of the thrombin inhibitor upon TT is determined after i.v bolus administration to anesthetized rats and after oral treatment of fasted conscious rats. Due to limitations of blood volume and the number of points required to determine the time course from time of treatment to the time when the response returns to pretreatment values, two populations of rats are used. Each sample population represents alternating sequential time points. The average TT over the time course is used to calculate area under the curve (AUC). The index of bioavailability is calculated by the formula shown below and is expressed as percent relative activity.
(§6) The area under the curve (AUC) of the plasma TT time course is determined and adjusted for the dose. This index of bioavailability is termed "% Relative Activity" and is calculated as [formula]
(§7) Compound solutions are prepared fresh daily in normal saline and are injected as a bolus or are infused starting 15 min before and continuing throughout the experimental perturbation which is 15 minutes in the arteriovenous shunt model and 60 minutes in the FeCl3 model of arterial injury and in the spontaneous thrombolysis model. Bolus injection volume is 1 ml/kg for i.v., and 5 ml/kg for p.o. and infusion volume is 3 ml/hr.

[6] = rat, in vivo
Method: as §3, §4, §5, §6, §7

Row | SMILES | Enzyme Kass, Human Thrombin (human thrombin) | Enzyme Kass, Xa (factor Xa) | Enzyme Kass, Trypsin (Bovine trypsin) | Enzyme Kass, Plasmin (Human plasmin) | Enzyme Kass, t-Pa [1] | 2 × Clotting time, TT (Human Plasma [2]) | 2 × Clotting time, APTT (Human Plasma [3]) | 2 × Clotting time, PT (Human Plasma [4]) | Index of Bioavailability, % Relative Activity [5] | Index of Bioavailability, % Relative Activity [6] | t-Pa inhibition ([1]; at 13 μg/mL)
1 | CS(=O)(=O)N[C@H](Cc1ccccc1)C(=O)N1CCC[C@H]1C(=O)N[C@H](C=O)CCCNC(=N)N.Cl [Example 7, MeSO2 -D-Phe-Pro-Arg-H.HCl] | 690 L/mol × 10^6 | 2.4 L/mol × 10^6 | 220 L/mol × 10^6 | 17 L/mol × 10^6 | 13 L/mol × 10^6 | 21 ng/mL | 330 ng/mL | 530 ng/mL | 27% | – | –
2 | Cl.N=C(N)NCCC[C@@H](C=O)NC(=O)[C@@H]1CCCN1C(=O)[C@@H](Cc1ccccc1)NC(=O)c1cccnc1 [Example 3, N-Nicotinoyl-D-Phe-Pro-Arg-H.HCl] | 58 L/mol × 10^6 | 0.080 L/mol × 10^6 | 12 L/mol × 10^6 | 0.41 L/mol × 10^6 | 0.17 L/mol × 10^6 | 47 ng/mL | 1,300 ng/ML | 1,700 ng/ML | 3% | – | –
3 | CCOC(=O)N[C@H](Cc1ccccc1)C(=O)N1CCC[C@H]1C(=O)N[C@H](C=O)CCCNC(=N)N.Cl [Example 33, EtOCO-D-Phe-Pro-Arg-H.HCl] | 170 L/mol × 10^6 | 2.3 L/mol × 10^6 | 240 L/mol × 10^6 | 16 L/mol × 10^6 | 2.5 L/mol × 10^6 | 22 ng/mL | 390 ng/mL | 2,000 ng/ML | 14% | – | –
4 | CC(C)S(=O)(=O)N[C@H](Cc1ccccc1)C(=O)N1CCC[C@H]1C(=O)N[C@H](C=O)CCCNC(=N)N.Cl [Example 11, i-Pr-SO2 -D-Phe-Pro-Arg-H-HCl] | 460 L/mol × 10^6 | 6.0 L/mol × 10^6 | 260 L/mol × 10^6 | 25 L/mol × 10^6 | 3.5 L/mol × 10^6 | 13 ng/mL | 270 ng/mL | 510 ng/mL | 10% | – | –
5 | CC(=O)N[C@H](CC1CCCCC1)C(=O)N1CCC[C@H]1C(=O)N[C@H](C=O)CCCNC(=N)N.Cl [Example 28, Ac-D-Cha-Pro-Arg-H.HCl] (Ac-[dCha]-Pro-Arg-aldehyde) | 26 L/mol × 10^6 | 1.1 L/mol × 10^6 | 12 L/mol × 10^6 | 0.61 L/mol × 10^6 | 0.035 L/mol × 10^6 | 92 ng/mL | 1,900 ng/ML | 3,500 ng/ML | – | 9% | –
6 | CCS(=O)(=O)N[C@H](Cc1ccccc1)C(=O)N1CCC[C@H]1C(=O)N[C@H](C=O)CCCNC(=N)N.Cl [Example 8, EtSO2 -D-Phe-Pro-Arg-H-HCl] | 450 L/mol × 10^6 | 2.6 L/mol × 10^6 | 260 L/mol × 10^6 | 31 L/mol × 10^6 | 2.9 L/mol × 10^6 | 9 ng/mL | 260 ng/mL | 660 ng/mL | 31% | – | –
7 | CN(C)S(=O)(=O)N[C@H](Cc1ccccc1)C(=O)N1CCC[C@H]1C(=O)N[C@H](C=O)CCCNC(=N)N.Cl [Example 12, Me2 NSO2 -D-Phe-Pro-Arg-H.HCl] | 300 L/mol × 10^6 | 3.9 L/mol × 10^6 | 160 L/mol × 10^6 | 21 L/mol × 10^6 | – | 46 ng/mL | 360 ng/mL | 480 ng/mL | 26% | – | 100%
8 | Cl.N=C(N)NCCC[C@@H](C=O)NC(=O)[C@@H]1CCCN1C(=O)[C@@H](Cc1ccccc1)NS(=O)(=O)c1ccccc1 [Example 13, PhSO2 -D-Phe-Pro-Arg-H.HCl] | 270 L/mol × 10^6 | 3.6 L/mol × 10^6 | 180 L/mol × 10^6 | 19 L/mol × 10^6 | 2.3 L/mol × 10^6 | 14 ng/mL | 450 ng/mL | 930 ng/mL | 3% | – | –
9 | CCCS(=O)(=O)N[C@H](Cc1ccccc1)C(=O)N1CCC[C@H]1C(=O)N[C@H](C=O)CCCNC(=N)N.Cl [Example 9, n-Pr-SO2 -D-Phe-Pro-Arg-H.HCl] | 1,700 L/mol × 10^6 | 13 L/mol × 10^6 | 480 L/mol × 10^6 | 29 L/mol × 10^6 | 2.8 L/mol × 10^6 | 6 ng/mL | 220 ng/mL | 510 ng/mL | 14% | – | –
10 | Cl.N=C(N)NCCC[C@@H](C=O)NC(=O)[C@@H]1CCCN1C(=O)[C@@H](Cc1ccccc1)NCC1CCCCC1 [Example 30, cyclohexyl-CH2 -D-phe-pro-Arg-H.HCl] | 480 L/mol × 10^6 | 0.11 L/mol × 10^6 | 69 L/mol × 10^6 | 0.49 L/mol × 10^6 | 0.046 L/mol × 10^6 | 16 ng/mL | 860 ng/mL | 1,200 ng/ML | 1% | – | –
